{"source": "patent US20200397913A1", "about": "“AXL-SPECIFIC ANTIBODY-DRUG CONJUGATES FOR CANCER TREATMENT” (GENMAB A/S, priority 2015, published 2020)", "key": {"[1]": {"test_system": "SKMEL147 tumors", "assay": "SKMEL147 melanoma xenograft model", "format": "in vivo, NMRI nude mice"}, "[2]": {"test_system": "LXFA 677 tumors", "assay": "NSCLC PDX model LXFA 677", "format": "in vivo, NMRI nu/nu mice"}, "[3]": {"test_system": "PC9 wild type cells", "assay": "In vitro cytotoxicity assay, NSCLC cell line", "format": "cell-based, human"}}}
{"substance": "IgG1-AXL-107-vcMMAE: IgG1-AXL-107 conjugated at cysteines to vcMMAE (mc-vc-PAB linker, MMAE)", "values": [{"measurement": "anti-tumor activity", "setting": "[1]; 2 mg/kg i.v. on day 12 and day 19 after tumor cell injection", "result": "induced tumor growth inhibition"}, {"measurement": "anti-tumor activity", "setting": "[1]; 4 mg/kg i.v. on day 12 and day 19 after tumor cell injection", "result": "induced strong tumor regression"}, {"measurement": "anti-tumor activity", "setting": "[1]; 4 mg/kg i.v. on day 12 and day 19 after tumor cell injection, listed as HuMax-AXL-ADC", "result": "profound anti-tumor effect"}, {"measurement": "anti-tumor activity upon retreatment after regrowth", "setting": "[1]; single dose of 4 mg/kg on day 55, four mice", "result": "tumor regression in all four mice"}, {"measurement": "anti-tumor activity", "setting": "[2]; LXFA 677, ADC 2 mg/kg day 0 and 7, alone or with erlotinib 50 mg/kg daily", "result": "induced tumor growth inhibition"}, {"measurement": "anti-tumor activity", "setting": "[2]; LXFA 677, ADC 4 mg/kg day 0 and 7, alone or with erlotinib 50 mg/kg daily", "result": "induced partial tumor regression"}, {"measurement": "sensitivity of the cell line (cell viability)", "setting": "[3]", "result": "insensitive"}]}
